In brackets after ≈: the same amount, converted by molar mass. Read-outs that look alike come from different tables or passages of the source.
How the values were obtained:
[1] = system: Mycobacterium smegmatis ATCC 700084; test: Antimycobacterial screening, broth dilution MIC; type: cell-based; settings: Mycolicibacterium smegmatis, ATCC700084, 72 h, read-out: MIC M. smegmatis
MRSA SA 3202 = test: Antibacterial screening, broth microdilution MIC; type: cell-based, methicillin-resistant S. aureus; settings: Staphylococcus aureus, read-out: MIC MRSA SA 3202
S. aureus ATCC 29213 = test: Antibacterial screening, broth microdilution MIC; type: cell-based; settings: Staphylococcus aureus, read-out: MIC S. aureus
[2] = Lipophilicity determination by RP-HPLC (log k, log D); type: physicochemical; settings: for log D6.5: RP-HPLC C18, MeOH 72 % / acetate-buffered saline pH 6.5; for log D7.4: RP-HPLC C18, MeOH 72 % / acetate-buffered saline pH 7.4; for log k (logarithm of the capacity factor): RP-HPLC C18, MeOH 72 % / water 28 %
Description: An HPLC system Agilent 1200 equipped with a DAD detector (Agilent, Santa Clara, CA, USA) was used. A chromatographic column Symmetry® C18 5 μm, 4.6×250 mm, part No. WAT054275 (Waters Corp., Milford, MA, USA) was used. The HPLC separation process was monitored and evaluated with EZChrom Elite software ver. 3.3.2 (Agilent). Isocratic elution by a mixture of MeOH p.a. (72 %) and H2O-HPLC Mili-Q grade (28 %) as a mobile phase was used for the determination of capacity factor k. Isocratic elution by a mixture of MeOH p.a. (72 %) and acetate-buffered saline (pH 7.4 and pH 6.5) (28 %) as a mobile phase was used for the determination of distribution coefficients expressed as D7.4 and D6.5. The total flow of the column was 1.0 mL min^-1, the injection volume was 20 μL, the column temperature was 40 °C, and the sample temperature was 10 °C. The detection wavelength of 210 nm was chosen. A KI methanolic solution was used to determine the dead times (tD). Retention times (tR) were measured in minutes. The capacity factors k were calculated according to the formula k = (tR–tD)/tD, where tR is the retention time of the solute, and tD is the dead time obtained using an unretained analyte. The distribution coefficients DpH were calculated according to the formula DpH = (tR–tD)/tD. Each experiment was repeated three times.
The capacity factor and distribution coefficients were measured by RP-HPLC on a C18 column with methanol as an organic modifier of the mobile phase. In addition to the experimental lipophilicities, predicted log P values were also calculated using ACD/Percepta, see Table 1. […] The values of σ(Ar) are found in a wide range from 0.01 to 1.36, so the compounds contain substituents with both electron-donating and slightly electron-withdrawing properties.

VRE 342B = test: Antibacterial screening, broth microdilution MIC; type: cell-based, vancomycin-resistant E. faecalis; settings: Enterococcus, vanA isolate, 24 h at 37 °C, read-out: MIC VRE 342B
[3] = system: Mycobacterium tuberculosis ATCC 25177/H37Ra; test: Antimycobacterial screening, broth dilution MIC (Alamar blue); type: cell-based; settings: 336 h, read-out: MIC M. tuberculosis
Method: The evaluation of in vitro antimycobacterial activity of the compounds was performed against Mycobacterium tuberculosis ATCC 25177/H37Ra, Mycobacterium kansasii DSM 44162 and Mycobacterium smegmatis ATCC 700084.
The broth dilution micro-method in Middlebrook 7H9 medium (Difco, Lawrence, KS, USA) supplemented with ADC Enrichment (Difco) was used to determine the minimum inhibitory concentration (MIC) as previously described. […] The final concentrations of the evaluated compounds, ranging from 256 to 0.125 μg mL^-1, were obtained by twofold serial dilution of the stock solution in a microtiter plate with a sterile medium. Bacterial inocula were prepared by transferring colonies from culture to sterile water. The plate was inoculated by tested microorganisms. The final concentration of bacterial cells was 1.5×10^6 for M. tuberculosis and 10^5 cells in a microtiter plate for other mycobacteria. Isoniazid and rifampicin (Sigma) were used as reference antimycobacterial drugs. Drug-free controls, sterility controls, and controls consisting of medium and DMSO alone were included. The plates were incubated for a defined time at an appropriate temperature (3 days at 37 °C for M. smegmatis, and 14 days at 37 °C for M. tuberculosis and M. kansasii). […] The MICs against M. tuberculosis were evaluated by Alamar blue (Oxoid). After incubation, 10 % of Alamar blue was added to each well, and the plate was incubated for 24 h. The MIC values were assessed as the lowest concentration of the tested compounds, which prevented changing blue resazurin to pink resorufin. The experiments were repeated three times. The minimum inhibitory concentrations (MICs) were defined as the lowest concentration of the compound at which no visible bacterial growth was observed. The MIC value is routinely and widely used in bacterial assays and is a standard detection limit according to the CLSI [60].

[4] = system: Mycobacterium kansasii DSM 44162; test: Antimycobacterial screening, broth dilution MIC; type: cell-based; settings: DSM44162, 336 h, read-out: MIC M. kansasii
VRE 368 = test: Antibacterial screening, broth microdilution MIC; type: cell-based, vancomycin-resistant E. faecalis; settings: Enterococcus, vanA isolate, 24 h at 37 °C, read-out: MIC VRE 368
[5] = system: Enterococcus faecalis ATCC 29212; test: Antibacterial screening, broth microdilution MIC; type: cell-based; settings: read-out: MIC E. faecalis
MRSA 63718 = test: Antibacterial screening, broth microdilution MIC; type: cell-based, methicillin-resistant S. aureus; settings: Staphylococcus aureus, clinical isolate, 24 h at 37 °C, read-out: MIC MRSA 63718
VRE 725B = test: Antibacterial screening, broth microdilution MIC; type: cell-based, vancomycin-resistant E. faecalis; settings: Enterococcus, vanA isolate, 24 h at 37 °C, read-out: MIC VRE 725B
E. coli ATCC 25922 = test: Antibacterial screening, broth microdilution MIC; type: cell-based; settings: Escherichia coli, ATCC25922; ATCC 25922, 24 h at 37 °C
MRSA SA 630 = test: Antibacterial screening, broth microdilution MIC; type: cell-based, methicillin-resistant S. aureus; settings: Staphylococcus aureus, read-out: MIC MRSA SA 630
[6] = clinical isolate, 24 h at 37 °C
[7] = ATCC29213, ATCC 29213, 24 h at 37 °C
[8] = ATCC29212, ATCC 29212, 24 h at 37 °C
[9] = H37Ra, 14 days at 37 °C, Alamar blue

| Structure (SMILES) | MIC ([1]; ATCC 700084, 3 days at 37 °C) | MIC (MRSA SA 3202; [6]) | MIC (S. aureus ATCC 29213; [7]) | log D6.5 [2] | log D7.4 [2] | log k (logarithm of the capacity factor) [2] | MIC (VRE 342B) | MIC ([4]; DSM 44162, 14 days at 37 °C) | MIC (VRE 368) | MIC [5, 8] | MIC (MRSA 63718) | MIC (VRE 725B) | MIC (E. coli ATCC 25922) | MIC (MRSA SA 630; [6]) | MIC [3, 9] | further results |
| --- | --- | --- | --- | --- | --- | --- | --- | --- | --- | --- | --- | --- | --- | --- | --- | --- |
| COc1cc(NC(=O)c2c(O)ccc3ccccc23)cc(OC)c1OC [Compound 7, 2-Hydroxy-N-(3,4,5-trimethoxyphenyl)naphthalene-1-carboxamide] | 210 µM (≈ 74.2 µg/mL) | 419 µM (≈ 148 µg/mL) | 838 µM (≈ 296 µg/mL) | -0.1053 | -0.0948 | -0.1150 | 724 µM (≈ 256 µg/mL) | 838 µM (≈ 296 µg/mL) | 724 µM (≈ 256 µg/mL) | 724 µM (≈ 256 µg/mL) | 838 µM (≈ 296 µg/mL) | 724 µM (≈ 256 µg/mL) | 838 µM (≈ 296 µg/mL) | 838 µM (≈ 296 µg/mL) |  | MIC [3]: 210 µM (≈ 74.2 µg/mL) |
| Cc1ccccc1NC(=O)c1c(O)ccc2ccccc12 [Compound 8, 2-hydroxy-N-(2-methylphenyl)naphthalene-1-carboxamide] | 462 µM (≈ 128 µg/mL) | 462 µM (≈ 128 µg/mL) | 462 µM (≈ 128 µg/mL) | 0.0745 | 0.0838 | 0.0858 | 462 µM (≈ 128 µg/mL) | 115 µM (≈ 31.9 µg/mL) | 462 µM (≈ 128 µg/mL) | 462 µM (≈ 128 µg/mL) | 462 µM (≈ 128 µg/mL) | 462 µM (≈ 128 µg/mL) | 462 µM (≈ 128 µg/mL) | 462 µM (≈ 128 µg/mL) | 231 µM (≈ 64.1 µg/mL) |  |
| Cc1ccc(C)c(NC(=O)c2c(O)ccc3ccccc23)c1 [Compound 11, N-(2,5-Dimethylphenyl)-2-hydroxynaphthalene-1-carboxamide] | 220 µM (≈ 64.1 µg/mL) | 110 µM (≈ 32 µg/mL) | 110 µM (≈ 32 µg/mL) | 0.2455 | 0.2514 | 0.2486 | 879 µM (≈ 256 µg/mL) | 110 µM (≈ 32 µg/mL) | 879 µM (≈ 256 µg/mL) | 879 µM (≈ 256 µg/mL) | 110 µM (≈ 32 µg/mL) | 879 µM (≈ 256 µg/mL) | 879 µM (≈ 256 µg/mL) | 110 µM (≈ 32 µg/mL) | 439 µM (≈ 128 µg/mL) |  |
| Cc1cccc(C)c1NC(=O)c1c(O)ccc2ccccc12 [Compound 12, N-(2,6-Dimethylphenyl)-2-hydroxynaphthalene-1-carboxamide] | 879 µM (≈ 256 µg/mL) |  |  | 0.0838 | 0.0923 | 0.0785 | 879 µM (≈ 256 µg/mL) | 879 µM (≈ 256 µg/mL) | 879 µM (≈ 256 µg/mL) | 879 µM (≈ 256 µg/mL) | 879 µM (≈ 256 µg/mL) | 879 µM (≈ 256 µg/mL) | 879 µM (≈ 256 µg/mL) |  | 439 µM (≈ 128 µg/mL) | MIC (MRSA SA 3202; 24 h): 439 µM (≈ 128 µg/mL); MIC (S. aureus ATCC 29213; ATCC29213, 24 h): 439 µM (≈ 128 µg/mL); MIC (MRSA SA 630; 24 h): 439 µM (≈ 128 µg/mL) |
| Cc1cc(C)c(NC(=O)c2c(O)ccc3ccccc23)c(C)c1 [Compound 14, 2-Hydroxy-N-(2,4,6-trimethylphenyl)naphthalene-1-carboxamide] | 210 µM (≈ 64.1 µg/mL) | 419 µM (≈ 128 µg/mL) | 838 µM (≈ 256 µg/mL) | 0.2629 | 0.2691 | 0.2539 | 838 µM (≈ 256 µg/mL) | 838 µM (≈ 256 µg/mL) | 838 µM (≈ 256 µg/mL) | 838 µM (≈ 256 µg/mL) | 838 µM (≈ 256 µg/mL) | 838 µM (≈ 256 µg/mL) | 838 µM (≈ 256 µg/mL) | 838 µM (≈ 256 µg/mL) | 210 µM (≈ 64.1 µg/mL) |  |
| COc1ccc(C)cc1NC(=O)c1c(O)ccc2ccccc12 [Compound 15, 2-Hydroxy-N-(2-methoxy-5-methylphenyl)naphthalene-1-carboxamide] | 833 µM (≈ 256 µg/mL) | 833 µM (≈ 256 µg/mL) | 833 µM (≈ 256 µg/mL) | 0.4974 | 0.5012 | 0.4932 | 833 µM (≈ 256 µg/mL) |  | 833 µM (≈ 256 µg/mL) | 833 µM (≈ 256 µg/mL) | 833 µM (≈ 256 µg/mL) | 833 µM (≈ 256 µg/mL) | 833 µM (≈ 256 µg/mL) | 833 µM (≈ 256 µg/mL) | 416 µM (≈ 128 µg/mL) | MIC [4]: 833 µM (≈ 256 µg/mL) |
| COc1cccc(C)c1NC(=O)c1c(O)ccc2ccccc12 [Compound 16, 2-Hydroxy-N-(2-methoxy-6-methylphenyl)naphthalene-1-carboxamide] |  | 833 µM (≈ 256 µg/mL) | 833 µM (≈ 256 µg/mL) | 0.0284 | 0.0382 | 0.0124 | 208 µM (≈ 63.9 µg/mL) |  | 208 µM (≈ 63.9 µg/mL) |  | 833 µM (≈ 256 µg/mL) | 833 µM (≈ 256 µg/mL) | 833 µM (≈ 256 µg/mL) | 833 µM (≈ 256 µg/mL) | 416 µM (≈ 128 µg/mL) | MIC [1]: 416 µM (≈ 128 µg/mL); MIC [4]: 833 µM (≈ 256 µg/mL); MIC ([5]; ATCC29212, 24 h): 416 µM (≈ 128 µg/mL) |
